# Reference: PubChem BioAssay (NCI)
# Values joined by “and” are separate entries in the source; they are usually repeats but may differ in a detail not shown here. Identical values can stand only once.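 Interpolation was linear, between the two tested concentrations surrounding the appropriate level; five concentrations were tested over 48 hours in 96-well plates. The concentration for 50% growth inhibition is given as GI50. TGI denotes the concentration required for complete inhibition of growth.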
# How the values were obtained:
# Test in all cases: NCI-60 cell line screen, 48 h
# SNB-75 CNS = tested on: SNB-75 CNS
# A549 NSCLC = tested on: A549 NSCLC
# NCI/ADR-RES ovarian = tested on: NCI/ADR-RES ovarian
# A498 renal = tested on: A498 renal
# OVCAR-3 ovarian = tested on: OVCAR-3 ovarian
# RXF 393 renal = tested on: RXF 393 renal
# HCC-2998 colon = tested on: HCC-2998 colon
# HL-60(TB) leukemia = tested on: HL-60(TB) leukemia
# SF-268 CNS = tested on: SF-268 CNS
# RPMI-8226 leukemia = tested on: RPMI-8226 leukemia
Compound,GI50 (SNB-75 CNS),TGI (SNB-75 CNS),GI50 (A549 NSCLC),TGI (A549 NSCLC),GI50 (NCI/ADR-RES ovarian),TGI (NCI/ADR-RES ovarian),GI50 (A498 renal),TGI (A498 renal),GI50 (OVCAR-3 ovarian),TGI (OVCAR-3 ovarian),GI50 (RXF 393 renal),TGI (RXF 393 renal),GI50 (HCC-2998 colon),TGI (HCC-2998 colon),GI50 (HL-60(TB) leukemia),TGI (HL-60(TB) leukemia),GI50 (SF-268 CNS),TGI (SF-268 CNS),GI50 (RPMI-8226 leukemia),TGI (RPMI-8226 leukemia)
Cc1cccc2c(N)c3ccccc3nc12,1.47 µM,4.14 µM,1.02 µM,4.02 µM,1.32 µM,12.8 µM,0.604 µM,2.28 µM,2.13 µM,10 µM,1.36 µM,3.72 µM,1.24 µM,4.35 µM,2.41 µM,10.3 µM,1.5 µM,9.22 µM,2.47 µM,6.73 µM
[Cl][Cd][Cl],22.7 µM and 11.2 µM,45.6 µM and 29.4 µM,> 47.8 µM and 33.2 µM,> 66.5 µM and 106 µM,120 µM,277 µM,14 µM,32.9 µM,3.26 µM and 12.1 µM and 6.94 µM,8 µM and 25.9 µM and 15.3 µM,50.1 µM and 13.6 µM,41.2 µM,23.6 µM and 79 µM,> 63.5 µM and 158 µM,39.4 µM and 18.6 µM,> 84.5 µM and 118 µM,16.5 µM and 8.95 µM,33.9 µM and 24.4 µM,,8.71 µM and 71.5 µM and 61.8 µM
Oc1ccc(Cl)cc1CNc1nc2ccccc2[nH]1,4.58 µM,21.6 µM,12.7 µM,30.2 µM,11.5 µM,37.8 µM,0.141 µM,18.2 µM,12.7 µM,29 µM,10.3 µM,23.9 µM,16.5 µM,32 µM,19.8 µM,> 100 µM,14.3 µM,30.2 µM,10 µM,49.5 µM
CCCNc1nc2ccccc2c2c1S(=O)(=O)c1ccc(Cl)cc1C2=O,,,1.99 µM,> 50 µM,1.37 µM,> 50 µM,1.51 µM,16.8 µM,0.944 µM,3.1 µM,0.263 µM,1.57 µM,1.62 µM,34.4 µM,1.49 µM,> 50 µM,1.35 µM,> 50 µM,0.345 µM,2.86 µM
CSc1cccc(NC(=O)OC2CCCCCCCCCCC2)c1,,> 100 µM,,> 100 µM,,64.5 µM,,62.3 µM,,29.6 µM,,70.9 µM,,,,35.1 µM,,> 100 µM,,54.4 µM
COc1ccc(C2=CC(c3ccc(OC)c(OC)c3)c3c(c4ccccc4oc3=O)O2)cc1OC (centres undefined),0.341 µM,2.17 µM,3.07 µM,> 100 µM,0.545 µM,,0.892 µM,> 20.2 µM,0.313 µM,,,,1.37 µM,4.97 µM,2.32 µM,,3.46 µM,> 100 µM,1.32 µM,16.7 µM
OCCN1CCN(CC/C=C2\c3ccccc3Sc3ccc(Cl)cc32)CC1,1.41 µM and 2.7 µM,5.07 µM and 7.95 µM,4.79 µM and 4.13 µM,22.9 µM and 14.3 µM,10.3 µM and 8.06 µM,24.8 µM and 21.8 µM,2.14 µM and 1.84 µM,4.29 µM and 7.94 µM,2.88 µM and 5.66 µM,13.1 µM and 17.8 µM,4.16 µM,11.4 µM,1.99 µM and 1.68 µM,3.8 µM and 3.16 µM,4.04 µM,3.71 µM and 9.92 µM,2.58 µM and 4.5 µM,10.9 µM and 15.1 µM,1.17 µM and 3.12 µM,3.11 µM and 10.8 µM
CNC(=O)OCC1C2=C(C(=O)C(C)=C(N)C2=O)N2CC3C(N3C)C12OC (centres undefined),,,,29.5 µM,,> 100 µM,,34.2 µM,,> 100 µM,,57.1 µM,,24.8 µM,,21.1 µM,,,,> 100 µM
C/C=C(\C)C(=O)N[C@H]1C(O)C[C@]2(C)C3CC[C@@]4(C)C(CC[C@@H]4C(C)N(C)C)C3CCC2C1O (some centres undefined),10.7 µM,26.6 µM,9.54 µM,33.6 µM,18.4 µM,> 75.5 µM,10.4 µM,30.1 µM,4.68 µM,19.5 µM,7.53 µM,23.2 µM,4.16 µM,9.21 µM,4.44 µM,16.9 µM,2.8 µM,8.94 µM,5.95 µM,25.5 µM
O=C1NCCS(=O)(=O)/C1=C\C=C\c1cccc(C(F)(F)F)c1,4.36 µM,20.1 µM,2.98 µM,11.6 µM,2.81 µM,14.2 µM,2.51 µM,5.31 µM,2.85 µM,11.4 µM,2.52 µM,5.37 µM,1.93 µM,3.72 µM,2.4 µM,7.26 µM,3.28 µM,15 µM,2.19 µM,8.31 µM
CC(=O)Oc1ccc(C(c2ccc(OC(C)=O)cc2)c2ccccn2)cc1,24.8 µM,> 100 µM,49.7 µM,> 100 µM,0.908 µM,> 100 µM,8.9 µM,> 100 µM,9.94 µM,98.9 µM and 23.2 µM,3.67 µM,96.9 µM and > 95.7 µM,11.3 µM,> 100 µM,25.4 µM,70 µM and 69.7 µM,> 87.9 µM,> 100 µM,30.3 µM,> 100 µM
COc1ccc(Nc2cc(C)nc(N3CCN(c4ccnc5cc(Cl)ccc45)CC3)n2)cc1,2.47 µM,13.4 µM,2 µM,> 100 µM,2.48 µM,8.43 µM,0.832 µM,7.26 µM,2.31 µM,6.15 µM,2.79 µM,21 µM,3.24 µM,11.6 µM,3.12 µM,12.8 µM,4.7 µM,> 100 µM,2.18 µM,8.91 µM
O=C(Nc1ccc(I)cc1F)c1cc(Cl)ccc1O,0.308 µM,2.36 µM,2.73 µM,> 100 µM,0.4 µM,3.54 µM,0.176 µM,0.585 µM,0.413 µM,10.7 µM,0.507 µM,3.07 µM,3.14 µM,10.1 µM,0.441 µM,3.27 µM,0.507 µM,7.06 µM,0.28 µM,1.28 µM
